Assay results from US20090098130A1, “GLUCAGON-LIKE PROTEIN-1 RECEPTOR (GLP-1R) AGONIST COMPOUNDS” (priority 2007, published 2009).
Non-standard residues stand in square brackets, D forms with d. Residues, ends and D or L forms follow the SMILES beside them. Aib = CC(C)(N)C(=O)O

Tested on: pancreatic β cells
Test: glucose-stimulated insulin secretion (GSIS) assay
Type: cell-based
Conditions: GA targeting peptide; insulin secretion from pancreatic β cell cultures in vitro with glucose
Description: Briefly, glucose and GA targeting peptide was added at various concentrations to pancreatic β cell cultures, and insulin secretion was detected by measuring insulin levels over time. EC50 was calculated for each peptide.
The ability of these GA targeting agent-linker conjugates to stimulate […] secretion in vitro was measured using the GSIS assay described in Example 27. […] Each of these peptides contained a side-chain modified Lys residue according to the scheme illustrated in FIG. 30 at a different position.

SMILES | EC50
CC[C@H](C)[C@H](NC(=O)[C@H](Cc1ccccc1)NC(=O)[C@H](CCC(=O)O)NC(=O)[C@H](CCCCN)NC(=O)[C@H](C)NC(=O)[C@H](C)NC(=O)[C@H](CCC(N)=O)NC(=O)CNC(=O)[C@H](CCC(=O)O)NC(=O)CNC(=O)[C@H](Cc1ccc(O)cc1)NC(=O)[C@H](CO)NC(=O)[C@H](CO)NC(=O)[C@@H](NC(=O)[C@H](CC(=O)O)NC(=O)[C@H](CO)NC(=O)[C@@H](NC(=O)[C@H](Cc1ccccc1)NC(=O)[C@@H](NC(=O)CNC(=O)[C@H](CCC(=O)O)NC(=O)C(C)(C)NC(=O)[C@@H](N)Cc1c[nH]cn1)[C@@H](C)O)[C@@H](C)O)C(C)C)C(=O)N[C@@H](C)C(=O)N[C@@H](Cc1c[nH]c2ccccc12)C(=O)N[C@@H](CC(C)C)C(=O)N[C@H](C(=O)N[C@@H](CCCCN)C(=O)NC(C)(C)C(=O)N[C@@H](CCCNC(=N)N)C(N)=O)C(C)C [SEQ ID NO: 40] (H-H[Aib]EGTFTSDVSSYGEGQAAKEFIAWLVK[Aib]R-NH2) | < 10 µM
CC[C@H](C)[C@H](NC(=O)[C@H](Cc1ccccc1)NC(=O)[C@H](CCC(=O)O)NC(=O)[C@H](CCCCN)NC(=O)[C@H](C)NC(=O)[C@H](C)NC(=O)[C@H](CCC(N)=O)NC(=O)CNC(=O)[C@H](CCC(=O)O)NC(=O)[C@H](CS)NC(=O)[C@H](Cc1ccc(O)cc1)NC(=O)[C@H](CO)NC(=O)[C@H](CO)NC(=O)[C@@H](NC(=O)[C@H](CC(=O)O)NC(=O)[C@H](CO)NC(=O)[C@@H](NC(=O)[C@H](Cc1ccccc1)NC(=O)[C@@H](NC(=O)CNC(=O)[C@H](CCC(=O)O)NC(=O)C(C)(C)NC(=O)[C@@H](N)Cc1c[nH]cn1)[C@@H](C)O)[C@@H](C)O)C(C)C)C(=O)N[C@@H](C)C(=O)N[C@@H](Cc1c[nH]c2ccccc12)C(=O)N[C@@H](CC(C)C)C(=O)N[C@H](C(=O)N[C@@H](CCCCN)C(=O)NC(C)(C)C(=O)N[C@@H](CCCNC(=N)N)C(N)=O)C(C)C [SEQ ID NO: 41] (H-H[Aib]EGTFTSDVSSYCEGQAAKEFIAWLVK[Aib]R-NH2) | < 10 µM
CC[C@H](C)[C@H](NC(=O)[C@H](Cc1ccccc1)NC(=O)[C@H](CCC(=O)O)NC(=O)[C@H](CCCCN)NC(=O)[C@H](C)NC(=O)[C@H](C)NC(=O)[C@H](CCC(N)=O)NC(=O)CNC(=O)[C@H](CCC(=O)O)NC(=O)[C@H](Cc1ccccc1)NC(=O)[C@H](Cc1ccc(O)cc1)NC(=O)[C@H](CO)NC(=O)[C@H](CO)NC(=O)[C@@H](NC(=O)[C@H](CC(=O)O)NC(=O)[C@H](CO)NC(=O)[C@@H](NC(=O)[C@H](Cc1ccccc1)NC(=O)[C@@H](NC(=O)CNC(=O)[C@H](CCC(=O)O)NC(=O)C(C)(C)NC(=O)[C@@H](N)Cc1c[nH]cn1)[C@@H](C)O)[C@@H](C)O)C(C)C)C(=O)N[C@@H](C)C(=O)N[C@@H](Cc1c[nH]c2ccccc12)C(=O)N[C@@H](CC(C)C)C(=O)N[C@H](C(=O)N[C@@H](CCCCN)C(=O)NC(C)(C)C(=O)N[C@@H](CCCNC(=N)N)C(N)=O)C(C)C [SEQ ID NO: 42] (H-H[Aib]EGTFTSDVSSYFEGQAAKEFIAWLVK[Aib]R-NH2) | < 10 µM
CC[C@H](C)[C@H](NC(=O)[C@H](Cc1ccccc1)NC(=O)[C@H](CCC(=O)O)NC(=O)[C@H](CCCCN)NC(=O)[C@H](C)NC(=O)[C@H](C)NC(=O)[C@H](CCC(N)=O)NC(=O)CNC(=O)[C@H](CCC(=O)O)NC(=O)[C@H](Cc1ccc(O)cc1)NC(=O)[C@H](Cc1ccc(O)cc1)NC(=O)[C@H](CO)NC(=O)[C@H](CO)NC(=O)[C@@H](NC(=O)[C@H](CC(=O)O)NC(=O)[C@H](CO)NC(=O)[C@@H](NC(=O)[C@H](Cc1ccccc1)NC(=O)[C@@H](NC(=O)CNC(=O)[C@H](CCC(=O)O)NC(=O)C(C)(C)NC(=O)[C@@H](N)Cc1c[nH]cn1)[C@@H](C)O)[C@@H](C)O)C(C)C)C(=O)N[C@@H](C)C(=O)N[C@@H](Cc1c[nH]c2ccccc12)C(=O)N[C@@H](CC(C)C)C(=O)N[C@H](C(=O)N[C@@H](CCCCN)C(=O)NC(C)(C)C(=O)N[C@@H](CCCNC(=N)N)C(N)=O)C(C)C [SEQ ID NO: 43] (H-H[Aib]EGTFTSDVSSYYEGQAAKEFIAWLVK[Aib]R-NH2) | < 10 µM
CC[C@H](C)[C@H](NC(=O)[C@H](Cc1ccccc1)NC(=O)[C@H](CCC(=O)O)NC(=O)[C@H](CCCCN)NC(=O)[C@H](C)NC(=O)[C@H](C)NC(=O)[C@H](CCC(N)=O)NC(=O)CNC(=O)[C@H](CCC(=O)O)NC(=O)[C@H](Cc1c[nH]c2ccccc12)NC(=O)[C@H](Cc1ccc(O)cc1)NC(=O)[C@H](CO)NC(=O)[C@H](CO)NC(=O)[C@@H](NC(=O)[C@H](CC(=O)O)NC(=O)[C@H](CO)NC(=O)[C@@H](NC(=O)[C@H](Cc1ccccc1)NC(=O)[C@@H](NC(=O)CNC(=O)[C@H](CCC(=O)O)NC(=O)C(C)(C)NC(=O)[C@@H](N)Cc1c[nH]cn1)[C@@H](C)O)[C@@H](C)O)C(C)C)C(=O)N[C@@H](C)C(=O)N[C@@H](Cc1c[nH]c2ccccc12)C(=O)N[C@@H](CC(C)C)C(=O)N[C@H](C(=O)N[C@@H](CCCCN)C(=O)NC(C)(C)C(=O)N[C@@H](CCCNC(=N)N)C(N)=O)C(C)C [SEQ ID NO: 44] (H-H[Aib]EGTFTSDVSSYWEGQAAKEFIAWLVK[Aib]R-NH2) | < 10 µM
CC[C@H](C)[C@H](NC(=O)[C@H](Cc1ccccc1)NC(=O)[C@H](CCC(=O)O)NC(=O)[C@H](CCCCN)NC(=O)[C@H](C)NC(=O)[C@H](C)NC(=O)[C@H](CCC(N)=O)NC(=O)[C@H](CCC(=O)O)NC(=O)[C@H](CCC(=O)O)NC(=O)[C@H](CC(C)C)NC(=O)[C@H](Cc1ccc(O)cc1)NC(=O)[C@H](CO)NC(=O)[C@H](CO)NC(=O)[C@@H](NC(=O)[C@H](CC(=O)O)NC(=O)[C@H](CO)NC(=O)[C@@H](NC(=O)[C@H](Cc1ccccc1)NC(=O)[C@@H](NC(=O)CNC(=O)[C@H](CCC(=O)O)NC(=O)C(C)(C)NC(=O)[C@@H](N)Cc1c[nH]cn1)[C@@H](C)O)[C@@H](C)O)C(C)C)C(=O)N[C@@H](C)C(=O)N[C@@H](Cc1c[nH]c2ccccc12)C(=O)N[C@@H](CC(C)C)C(=O)N[C@H](C(=O)N[C@@H](CCCCN)C(=O)NC(C)(C)C(=O)N[C@@H](CCCNC(=N)N)C(N)=O)C(C)C [SEQ ID NO: 45] (H-H[Aib]EGTFTSDVSSYLEEQAAKEFIAWLVK[Aib]R-NH2) | < 10 µM
CC[C@H](C)[C@H](NC(=O)[C@H](Cc1ccccc1)NC(=O)[C@H](CCC(=O)O)NC(=O)[C@H](CCCCN)NC(=O)[C@H](C)NC(=O)[C@H](C)NC(=O)[C@H](CCC(N)=O)NC(=O)[C@H](CC(=O)O)NC(=O)[C@H](CCC(=O)O)NC(=O)[C@H](CC(C)C)NC(=O)[C@H](Cc1ccc(O)cc1)NC(=O)[C@H](CO)NC(=O)[C@H](CO)NC(=O)[C@@H](NC(=O)[C@H](CC(=O)O)NC(=O)[C@H](CO)NC(=O)[C@@H](NC(=O)[C@H](Cc1ccccc1)NC(=O)[C@@H](NC(=O)CNC(=O)[C@H](CCC(=O)O)NC(=O)C(C)(C)NC(=O)[C@@H](N)Cc1c[nH]cn1)[C@@H](C)O)[C@@H](C)O)C(C)C)C(=O)N[C@@H](C)C(=O)N[C@@H](Cc1c[nH]c2ccccc12)C(=O)N[C@@H](CC(C)C)C(=O)N[C@H](C(=O)N[C@@H](CCCCN)C(=O)NC(C)(C)C(=O)N[C@@H](CCCNC(=N)N)C(N)=O)C(C)C [SEQ ID NO: 46] (H-H[Aib]EGTFTSDVSSYLEDQAAKEFIAWLVK[Aib]R-NH2) | < 10 µM
CC[C@H](C)[C@H](NC(=O)[C@H](Cc1ccccc1)NC(=O)[C@H](CCC(=O)O)NC(=O)[C@H](CCCCN)NC(=O)[C@H](C)NC(=O)[C@H](C)NC(=O)[C@H](CCC(N)=O)NC(=O)[C@H](CCCCN)NC(=O)[C@H](CCC(=O)O)NC(=O)[C@H](CC(C)C)NC(=O)[C@H](Cc1ccc(O)cc1)NC(=O)[C@H](CO)NC(=O)[C@H](CO)NC(=O)[C@@H](NC(=O)[C@H](CC(=O)O)NC(=O)[C@H](CO)NC(=O)[C@@H](NC(=O)[C@H](Cc1ccccc1)NC(=O)[C@@H](NC(=O)CNC(=O)[C@H](CCC(=O)O)NC(=O)C(C)(C)NC(=O)[C@@H](N)Cc1c[nH]cn1)[C@@H](C)O)[C@@H](C)O)C(C)C)C(=O)N[C@@H](C)C(=O)N[C@@H](Cc1c[nH]c2ccccc12)C(=O)N[C@@H](CC(C)C)C(=O)N[C@H](C(=O)N[C@@H](CCCCN)C(=O)NC(C)(C)C(=O)N[C@@H](CCCNC(=N)N)C(N)=O)C(C)C [SEQ ID NO: 47] (H-H[Aib]EGTFTSDVSSYLEKQAAKEFIAWLVK[Aib]R-NH2) | < 10 µM
CC[C@H](C)[C@H](NC(=O)[C@H](C)NC(=O)[C@H](CCC(N)=O)NC(=O)CNC(=O)[C@H](CCC(=O)O)NC(=O)[C@H](CC(C)C)NC(=O)[C@H](Cc1ccc(O)cc1)NC(=O)[C@H](CO)NC(=O)[C@H](CO)NC(=O)[C@@H](NC(=O)[C@H](CC(=O)O)NC(=O)[C@H](CO)NC(=O)[C@@H](NC(=O)[C@H](Cc1ccccc1)NC(=O)[C@@H](NC(=O)CNC(=O)[C@H](CCC(=O)O)NC(=O)C(C)(C)NC(=O)[C@@H](N)Cc1c[nH]cn1)[C@@H](C)O)[C@@H](C)O)C(C)C)C(=O)N[C@@H](CCCCN)C(=O)N[C@@H](CCC(=O)O)C(=O)N[C@@H](Cc1ccccc1)C(=O)N[C@H](C(=O)N[C@@H](C)C(=O)N[C@@H](Cc1c[nH]c2ccccc12)C(=O)N[C@@H](CC(C)C)C(=O)N[C@H](C(=O)N[C@@H](CCCCN)C(=O)NC(C)(C)C(=O)N[C@@H](CCCNC(=N)N)C(N)=O)C(C)C)[C@@H](C)CC [SEQ ID NO: 49] (H-H[Aib]EGTFTSDVSSYLEGQAIKEFIAWLVK[Aib]R-NH2) | < 10 µM
CC[C@H](C)[C@H](NC(=O)[C@H](Cc1ccccc1)NC(=O)[C@H](CCC(=O)O)NC(=O)[C@H](CCCCN)NC(=O)[C@H](CC(C)C)NC(=O)[C@H](C)NC(=O)[C@H](CCC(N)=O)NC(=O)CNC(=O)[C@H](CCC(=O)O)NC(=O)[C@H](CC(C)C)NC(=O)[C@H](Cc1ccc(O)cc1)NC(=O)[C@H](CO)NC(=O)[C@H](CO)NC(=O)[C@@H](NC(=O)[C@H](CC(=O)O)NC(=O)[C@H](CO)NC(=O)[C@@H](NC(=O)[C@H](Cc1ccccc1)NC(=O)[C@@H](NC(=O)CNC(=O)[C@H](CCC(=O)O)NC(=O)C(C)(C)NC(=O)[C@@H](N)Cc1c[nH]cn1)[C@@H](C)O)[C@@H](C)O)C(C)C)C(=O)N[C@@H](C)C(=O)N[C@@H](Cc1c[nH]c2ccccc12)C(=O)N[C@@H](CC(C)C)C(=O)N[C@H](C(=O)N[C@@H](CCCCN)C(=O)NC(C)(C)C(=O)N[C@@H](CCCNC(=N)N)C(N)=O)C(C)C [SEQ ID NO: 50] (H-H[Aib]EGTFTSDVSSYLEGQALKEFIAWLVK[Aib]R-NH2) | < 10 µM
